# Results: US20200123208A1, “PEPTIDES AND NEMATICIDAL COMPOSITIONS” (priority 2017, published 2020)
# Experiments:
# Format in all cases: in vivo
# [1] = test system: Meloidogyne incognita J2s; experiment: Tomato invasion assay, M. incognita J2s
# Protocol: (§1) Predicted uNLPs from both M. incognita and G. pallida were synthesised by EZBiolab and dissolved into pH adjusted ddH2O to make a 5 mM stock which was aliquoted and stored at −20° C. J2s of both M. incognita and G. pallida were incubated for 24 hours in 200 μl of each peptide in a 24 well plate (SPL Lifesciences, South Korea) at a defined concentration.
# (§2) Tomato seeds were sterilised with 2.5% NaOCl for 15 minutes, washed 5 times in ddH2O and germinated on 0.5% Murashige and Skoog plates at 23° C. […] Invasion assays were performed by mixing 500 pre-treated M. incognita or G. pallida J2s with agar slurry and a single tomato seedling (2 days post germination) in a 6 well plate. Assays were left at 23° C. for 24 hours in the case of M. incognita and at 18° C. for 24 hours in the case of G. pallida under a 16 hour light and 8 hour darkness cycle. Seedlings were stained using acid fuschin [69] and the number of nematodes within the roots counted.
# [2] = test system: mixed-stage Caenorhabditis elegans; experiment: C. elegans chemotaxis assay (non-target nematode); conditions: 100 μM, 24 h, no statistically significant impact
# Protocol: C. elegans wild-type N2 Bristol strain were obtained from the C. elegans Genomics Center and maintained on a Escherichia coli (strain OP50) lawn on nematode growth medium (NGM) agar plates (3 g/l NaCl, 17 g/l agar, 2.5 g/l peptone, 5 mg/l cholesterol, 25 mM KH2PO4 (pH 6.0), 1 mM CaCl2, 1 mM MgSO4) at 20° C.. Chemotaxis assays were performed in a 9 cm diameter Petri dish on NGM agar which was split into a positive and negative side with a central ‘dead zone’ of 1.5 cm diameter. 100 mixed-staged C. elegans were washed three times in M9 buffer and soaked in 100 μM PPN uNLP, or M9 vehicle control for 24 hours. 2 μl of 50 mM sodium acetate, 0.5% pyrazine, 0.5% benzaldehyde or 0.5% diacetyl was spotted onto the positive side, 2 μl of ddH2O was spotted onto the negative side. Pyrazine, benzaldehyde and diacetyl volatile attractants were assayed immediately whereas the water soluble sodium acetate was assayed 18 hours following addition to the plate. Assays were maintained in the dark at 20° C., and counted after 1 hour.
# [3] = test system: Meloidogyne incognita J2s; experiment: B. subtilis and C. reinhardtii plant protection assay, M. incognita; conditions: tomato
# Protocol: as §2
# B. subtilis were grown overnight in LB media containing ampicillin (100 μg/ml) at 37° C. with shaking, and harvested in the log phase of growth determined by measuring OD600nm. Five ml of culture at 0.5 OD was spun down and the pellet mixed with 3 ml of agar slurry and 500 J2s from either G. pallida or M. incognita. C. reinhardtii clones were grown at 23° C. with shaking, cultures in the log phase were measured at OD750 and 5 ml of culture at 0.5 OD was pelleted by centrifugation. C. reinhardtii pellets were mixed with 3 ml of agar slurry and 500 J2s from either G. pallida or M. incognita. Plant invasion assays were performed as described above.
# uNLP secretion inserts, and vector pChlamy_3 were digested using Kpnl/Xbal (New England Biolabs, USA), ligated using T4 ligase (New England Biolabs, USA), and cloned into Escherichia coli One Shot® TOP10 chemically competent cells (Life Technologies, USA) following manufacturer's instructions. Ampicillin (Sigma Aldrich, USA) was used to select E. coli containing the pChlamy_3 plasmid, which was subsequently extracted using the High Pure Plasmid Isolation Kit (Roche) and sequenced (Eurofins Genomics, UK) to identify correct clones. C. reinhardtii was transformed by electroporation following manufacturer's instructions (GeneArt® Chlamydomonas Engineering Kit, Life Technologies) and individual colonies grown on TAP-Agar-Hygromycin plates (10 μg/mL) (Sigma Aldrich, USA) at 23° C. Colonies were picked and grown at 23° C. in 100 ml TAP growth media (Invitrogen, USA) with constant orbital agitation. qRT-PCR was performed to identify clones with the highest level of uNLP expression, which were then selected for downstream assays (pChlamy universal FWD: […], nlp-15b REV: CTACTAGTCGAGGCCGGTA; Mi-nlp-9f REV: GAACGGGCGGATGAAGTAG).
# uNLP secretion inserts, and vector pBE-S were digested using Xbal/Mlul (New England Biolabs, USA), ligated using T4 ligase (New England Biolabs, USA), and cloned into E. coli One Shot® TOP10 chemically competent cells (Life Technologies, USA) following manufacturer's instructions. […]
# [4] = test system: Globodera pallida J2s; experiment: Tomato invasion assay, G. pallida J2s; conditions: exogenous pre-treatment of J2s
# Protocol: as §1, §2
sequence,measurement,setting,value
SFDSFTGPGFTGLD [Mi-NLP-15b],host invasion compared to controls,"[1]; 100 μM uNLP, 24 h, tomato seedlings, normalised to negative control",32.22%+/−8.122
same,J2 invasion relative to control,"[1]; Mi-NLP-15b 100 nM, 24 h",69.9%+/−10.66
same,J2 invasion relative to control,"[1]; Mi-NLP-15b 1 μM, 24 h",59.05%+/−8.545
same,J2 invasion relative to control,"[1]; Mi-NLP-15b 10 μM, 24 h",54.62%+/−8.362
same,J2 invasion relative to control,"[1]; Mi-NLP-15b 100 μM, 24 h (dilution series)",35.06%+/−6.407
same,chemotaxis index (Cl) towards sodium acetate,[2]; control 0.4269,0.3142+/−0.039
same,chemotaxis index (Cl) towards pyrazine,[2]; control 0.4904,0.4959+/−0.089
same,chemotaxis index (Cl) towards diacetyl,[2]; control 0.6638,0.6640+/−0.126
same,chemotaxis index (Cl) towards benzaldehyde,[2]; control 0.7026,0.7032+/−0.075
same,M. incognita invasion relative to control,[3]; B. subtilis cultures secreting the uNLP,26.63%+/−8.12
same,M. incognita invasion relative to untransformed C. reinhardtii,[3]; C. reinhardtii cultures secreting the uNLP,10.82%+/−6.574
same,effect of exogenous peptide exposure on G. pallida host invasion (in words),[4],does not inhibit host invasion
